Source: patent publication US8492342B2, “Preprocalcitonin antigen T epitopes” (Institut Gustave Roussy, priority 2007, dated 2013)

Assays:
IGR-Heu tumor cells [1] = experiment: Lysis (4 h 51Cr-release) by CTL clones of siRNA-electroporated IGR-Heu target cells; format: cell-based, human; conditions: CTL Heu161, FIG. 5C
Procedure: (§1) FIG. 5: Processing of the preprocalcitonin16-25 antigenic peptide involves SP and SPP. A. IGR-Heu tumor cells were incubated for 2 h at 37° C. with the serine protease inhibitor dichloroisocoumarin (DCI) at 250 μM, before addition of anti-preprocalcitonin (left panel) or anti-α-actinin-4 (right panel) CTL clones. B. Analysis of SPP mRNA expression by real-time RT-PCR analysis. Total RNA extracted from IGR-Heu tumor cells, electroporated or not with siRNA targeting SPP (siRNA-S1, siRNA-S2), was reverse-transcribed and quantified by TaqMan as described in Materials and Methods. C. Effect of SPP extinction on tumor cell recognition. Lytic activity of CTL clones Heu161 and Heu127 against IGR-Heu target cells, electroporated or not with siRNA-S1, siRNA-S2 or control siRNA, determined by a conventional 4 h ^51Cr-release assay at the indicated E/T ratios. Two representative experiments of six are shown for CTL clone Heu161. D. Production of IFNγ by Heu161 and Heu127 CTL clones stimulated with tumor cells electroporated or not with siRNA-S1 or control siRNA. E. The preprocalcitonin16-25 antigenic peptide is located at the C-terminus of the signal sequence of the calcitonin hormone precursor. […]
(§2) Cytotoxic activity was measured by a conventional 4-h ^51Cr-release assay using triplicate cultures in round-bottomed 96-well plates. Percent specific cytotoxicity was calculated conventionally; SD were <5%. […]

SPP = SPP expression in IGR-Heu cells electroporated with siRNA (real-time RT-PCR; protein); format: cell-based, human; conditions: for SPP expression at RNA level: 50 nM siRNA, 72 h, FIG. 5B; for SPP expression at protein level: data not shown
Procedure: FIG. 5: Processing of the preprocalcitonin16-25 antigenic peptide involves SP and SPP. A. IGR-Heu tumor cells were incubated for 2 h at 37° C. with the serine protease inhibitor dichloroisocoumarin (DCI) at 250 μM, before addition of anti-preprocalcitonin (left panel) or anti-α-actinin-4 (right panel) CTL clones. B. Analysis of SPP mRNA expression by real-time RT-PCR analysis. Total RNA extracted from IGR-Heu tumor cells, electroporated or not with siRNA targeting SPP (siRNA-S1, siRNA-S2), was reverse-transcribed and quantified by TaqMan as described in Materials and Methods. C. Effect of SPP extinction on tumor cell recognition. Lytic activity of CTL clones Heu161 and Heu127 against IGR-Heu target cells, electroporated or not with siRNA-S1, siRNA-S2 or control siRNA, determined by a conventional 4 h ^51Cr-release assay at the indicated E/T ratios. Two representative experiments of six are shown for CTL clone Heu161. D. Production of IFNγ by Heu161 and Heu127 CTL clones stimulated with tumor cells electroporated or not with siRNA-S1 or control siRNA. E. The preprocalcitonin16-25 antigenic peptide is located at the C-terminus of the signal sequence of the calcitonin hormone precursor. The optimal peptide recognized by CTL clone Heu161 is boxed. Arrows indicate the signal peptidase (SP) and the approximate signal peptide peptidase (SPP) cleavage sites. The n, h and c regions in the preprocalcitonin signal peptide were predicted using SignalP 3.0 software.
For SPP inhibition, we first tried the cysteine protease inhibitor Z-LL2 ketone (Calbiochem, Darmstadt, Germany), which was reported to specifically block SPP activity (WEIHOFEN et al., J Biol Chem, 275, 30951-6, 2000). No conclusive results were obtained in functional assays. We thus used siRNA targeting human SPP, siRNA-S1 (5-GACAUGCCUGAAACAAUCAtt-3; SEQ ID NO: 3) and siRNA-S2 (5-UGAUUGUUUCAGGCAUGUCtg-3; SEQ ID NO: 4), purchased from Ambion (Austin, Tex. USA). Non-targeting siRNA (Ambion) were used as negative control (siRNA Control). Briefly, IGR-Heu cells were transfected by electroporation with 50 nM siRNA in a Gene Pulser Xcell Electroporation System (Bio-Rad; 300 V, […]) as previously described (LE FLOC'H et al., J Exp Med, 2007) and then allowed to grow for 72 h.
For SPP mRNA expression, total RNA from IGR-Heu cells, transfected or not with siRNA-S 1 and siRNA-S2 targeting SPP, was extracted, reverse-transcribed and quantified by real-time RT-PCR analysis (TaqMan). PCR primers and probe were designed by Applied Biosystems and used according to the manufacturer's recommendations. The amount of RNA sample was normalized by amplification of an endogenous control (18S). […]

IGR-Heu tumor cells [2] = experiment: SP inhibition: lysis by CTL clones of DCI-treated IGR-Heu tumor cells; format: cell-based, human; conditions: pre-incubation of IGR-Heu, 250 μM, 2 h 37° C.; FIG. 5A
Procedure: as §1, §2

human TAP = biological target: T1, human TAP (Homo sapiens, UniProt Q03518+Q03519); experiment: TAP involvement: CTL recognition of 293-EBNA transfectants cotransfected with ICP47; format: cell-based
T1 construct: endogenous in cells; host or cells: 293-EBNA cells
T1 sequence (Q03518 1-748): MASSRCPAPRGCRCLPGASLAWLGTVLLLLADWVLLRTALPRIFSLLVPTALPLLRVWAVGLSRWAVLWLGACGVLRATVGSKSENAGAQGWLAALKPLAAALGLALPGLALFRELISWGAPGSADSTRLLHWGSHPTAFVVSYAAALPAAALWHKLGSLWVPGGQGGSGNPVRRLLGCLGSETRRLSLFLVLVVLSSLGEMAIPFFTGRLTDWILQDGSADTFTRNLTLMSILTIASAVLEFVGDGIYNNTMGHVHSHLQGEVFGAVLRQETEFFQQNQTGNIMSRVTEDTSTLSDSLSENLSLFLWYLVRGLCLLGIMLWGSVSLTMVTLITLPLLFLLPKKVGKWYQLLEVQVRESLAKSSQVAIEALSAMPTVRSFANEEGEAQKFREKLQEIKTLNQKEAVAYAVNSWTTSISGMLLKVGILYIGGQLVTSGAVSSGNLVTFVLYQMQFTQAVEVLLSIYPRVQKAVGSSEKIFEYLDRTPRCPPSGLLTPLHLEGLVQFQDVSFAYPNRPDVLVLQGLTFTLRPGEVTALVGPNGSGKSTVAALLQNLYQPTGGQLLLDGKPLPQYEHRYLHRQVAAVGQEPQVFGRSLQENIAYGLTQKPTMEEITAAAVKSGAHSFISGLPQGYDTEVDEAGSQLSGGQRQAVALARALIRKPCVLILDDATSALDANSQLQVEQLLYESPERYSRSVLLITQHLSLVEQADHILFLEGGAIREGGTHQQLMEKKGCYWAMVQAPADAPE
T1 sequence (Q03519 1-686): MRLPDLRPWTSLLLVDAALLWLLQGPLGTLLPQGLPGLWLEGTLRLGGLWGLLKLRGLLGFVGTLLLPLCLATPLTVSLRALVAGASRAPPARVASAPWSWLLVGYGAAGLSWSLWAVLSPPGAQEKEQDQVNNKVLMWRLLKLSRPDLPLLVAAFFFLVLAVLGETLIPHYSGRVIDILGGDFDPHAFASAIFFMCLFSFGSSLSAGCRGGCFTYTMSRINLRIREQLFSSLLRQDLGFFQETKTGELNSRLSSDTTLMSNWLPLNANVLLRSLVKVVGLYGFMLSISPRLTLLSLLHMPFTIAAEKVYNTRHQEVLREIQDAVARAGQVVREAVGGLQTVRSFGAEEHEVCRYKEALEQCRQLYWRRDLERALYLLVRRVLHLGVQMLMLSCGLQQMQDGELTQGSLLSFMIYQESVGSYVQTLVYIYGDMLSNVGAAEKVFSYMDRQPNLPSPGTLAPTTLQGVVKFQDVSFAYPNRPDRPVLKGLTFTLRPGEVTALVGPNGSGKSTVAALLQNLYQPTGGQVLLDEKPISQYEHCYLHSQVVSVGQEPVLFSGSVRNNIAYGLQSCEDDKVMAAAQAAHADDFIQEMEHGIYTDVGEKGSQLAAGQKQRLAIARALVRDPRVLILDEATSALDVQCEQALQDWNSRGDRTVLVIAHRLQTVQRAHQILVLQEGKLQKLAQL
Procedure: FIG. 4: Processing of the preprocalcitonin16-25 peptide is proteasome- and TAP-independent. A. IGR-Heu target cells were incubated for 2 h at 37° C. in the presence or absence of the proteasome-specific inhibitor epoxomicin, and then Heu161 cells were added. The autologous Heu127 clone, recognizing on IGR-Heu a proteasome-dependent mutated α-actinin-4 peptide, was included as a positive control. TNFβ released in medium after 24 h of culture was measured as above. B. 293-EBNA cells were cotransfected with pCEP4 containing either cDNA 150 (upper panel) or the mutated α-actinin-4 cDNA (lower panel), with pcDNA3.1 containing an HLA-A*0201 construct, and with various amounts of vector pBJi-neo containing IPC47 cDNA. CTL clones Heu161 (upper panel) or Heu127 (lower panel) were then added. Controls included 293-EBNA cells transfected with HLA-A2 or pBJi-neo-IPC47 alone, and incubation of transfectants with either preprocalcitonin or α-actinin-4 peptides. Data shown are representative of four independent experiments.
The involvement of TAP was tested by cotransfecting into 293-EBNA cells constructs coding for the antigenic peptide, for HLA-A2, and for the immediate-early protein ICP47 of herpes simplex virus type 1, which binds to and inhibits human TAP (BANKS et al., Virology, 200, 236-45, 1994).

CTL clone Heu161 = experiment: CTL stimulation (TNF release) by synthetic peptides loaded on HLA-A2+ MZ2-MEL.3.1 melanoma cells; format: cell-based, human
Procedure: FIG. 3: Identification of the antigenic peptide recognized by CTL clone Heu161. A. CTL stimulation with purified synthetic peptides. Peptides were loaded on allogeneic HLA-A2^+ MZ2-MEL.3.1 melanoma cells for 60 min at room temperature before addition of CTL clone Heu161. TNF release was measured 16 h later. Empty circles represent the results obtained with peptide SEQ ID NO: 1, full circles represent the results obtained with peptide SEQ ID NO: 2, empty squares represent the results obtained with peptide SEQ ID NO: 24, full squares represent the results obtained with peptide SEQ ID NO: 25 and empty diamonds represent the results obtained with peptide SEQ ID NO: 26. B. Lytic activity of CTL clone on peptide-pulsed cells. ^51Cr-labeled Heu-EBV-B cells were incubated over 60 min with the indicated concentrations of peptides before addition of CTL clone Heu161 at an E/T cell ratio of 10:1. Chromium release was measured after 4 h. Empty circles represent the results obtained with peptide SEQ ID NO: 1, full circles represent the results obtained with peptide SEQ ID NO: 2
TNFβ was detected by measuring the cytotoxicity of the culture medium on TNF-sensitive WEHI-164c13 cells with a MTT colorimetric assay (ESPEVIK & NISSEN-MEYER, J Immunol Methods, 95, 99-105, 1986).
We then prepared a series of calcitonin cDNA fragments truncated at their 5′ end and engineered to contain an initiation codon and a Kozak consensus sequence. […] Further trimming narrowed down the peptide-encoding region to residues 9-38 (FIG. 2B). Among a set of overlapping peptides covering this region, only two were recognized by CTL clone Heu161: VLLQAGSLHA (SEQ ID NO: 1) and LVLLQAGSLHA (SEQ ID NO: 2), which are identical, but with an additional leucine in the latter peptide. […] In a lysis assay, the decamer was slightly more efficient than the 11-mer peptide by a factor of about three (FIG. 3B). We concluded that the optimal antigenic peptide recognized by CTL clone Heu161 was VLLQAGSLHA (SEQ ID NO: 1) or preprocalcitonin16-25. This peptide corresponds exactly to the C-terminal part of the preprocalcitonin signal peptide (LE MOULLEC et al., FEBS Lett, 167, 93-7, 1984).

Compound: 5-GACAUGCCUGAAACAAUCAtt-3 [siRNA-S1]
- sensitivity of tumor cells to lysis by anti-preprocalcitonin CTL clone (IGR-Heu tumor cells [1]): strong decrease
- SPP expression at RNA level (SPP): specifically inhibit SPP expression
- SPP expression at protein level (SPP): specifically inhibit SPP expression

Compound: 5-UGAUUGUUUCAGGCAUGUCtg-3 [siRNA-S2]
- sensitivity of tumor cells to lysis by anti-preprocalcitonin CTL clone (IGR-Heu tumor cells [1]): strong decrease
- SPP expression at RNA level (SPP): specifically inhibit SPP expression
- SPP expression at protein level (SPP): specifically inhibit SPP expression

Compound: O=c1oc(Cl)c(Cl)c2ccccc12 [DCI, dichloroisocoumarin]
- effect on lysis by anti-preprocalcitonin CTL clone (IGR-Heu tumor cells [2]): totally resistant to lysis
- effect on recognition by anti-α-actinin-4 CTL clone (IGR-Heu tumor cells [2]): only a moderate effect

Compound: ICP47: immediate-early protein ICP47 of herpes simplex virus type 1, which binds to and inhibits human TAP; expressed by cotransfection
- effect on recognition of transfectants by anti-preprocalcitonin CTLs (human TAP; cDNA 150 + HLA-A2, FIG. 4B): no detectable effect
- effect on recognition of transfectants by anti-α-actinin-4 CTL clone (human TAP; mutated α-actinin-4 cDNA + HLA-A2, FIG. 4B): strongly inhibited

Compound: LVLLQAGSLHA [SEQ ID NO: 2]
- EC50 (CTL clone Heu161; HLA-A2+ melanoma cells loaded 60 min, TNF release after 16 h, FIG. 3A, read-out: peptide concentration giving half-maximal effect (sensitization to recognition by CTL Heu161)): ~10 nM
- recognition of peptide by CTL clone Heu161 (CTL clone Heu161; overlapping synthetic peptides of preprocalcitonin): recognized
